Test results as given in patent US10954503B2, “Antidotes for factor Xa inhibitors and methods of using the same” (Alexion Pharmaceuticals, Inc., priority 2007, dated 2021).

Experiments:
thrombin generation = assay: Thrombin generation assay in platelet poor or platelet rich plasma (RFU); type: biochemical, human; details: betrixaban 250 nM; all rfVIIa concentrations tested
aPTT of human plasma = assay: aPTT clotting assay with MLA Electra 800 automatic coagulation timer; type: biochemical
[1] = in vivo; cited from earlier work

Compound | inhibition of fXa by betrixaban in the presence of rfVIIa (thrombin generation) | aPTT (aPTT of human plasma; 300 nM Betrixaban alone) [s] | aPTT (aPTT of human plasma; 400 nM Betrixaban alone) [s] | extension of aPTT (aPTT of human plasma; 400 nM betrixaban) | reported therapeutic concentration [1]
COc1ccc(NC(=O)c2ccc(C(=N)N(C)C)cc2)c(C(=O)Nc2ccc(Cl)cn2)c1 [betrixaban, [2-({4-[(dimethylamino)iminomethyl]phenyl}carbonylamino)-5-methoxyphenyl]-N-(5-chloro(2-pyridyl))carboxamide] | about 75% | 61.8 | 66.3 | more than two folds | –
O=C(NC[C@H]1CN(c2ccc(N3CCOCC3=O)cc2)C(=O)O1)c1ccc(Cl)s1 [rivaroxaban] | – | – | – | – | approximately 600 nM
